Literature values, collected in patent publication US20050154058A1, “Method of preparing hydroxytyrosol esters, esters thus obtained and use of same” (priority 2002, published 2005).

Columns and labels:
[1] = state of the art, compared in words with free hydroxytyrosol or usual additives
[2] = state of the art

solubility in lipophilic medium [2]	Compound	antioxidant activity / protective capacity against oxidation [1]
liposoluble	CC(=O)OCCc1ccc(O)c(O)c1 [Example 1, 2-(3,4-dihydroxyphenyl)ethyl Acetate]	the same activity towards oxidation as does free hydroxytyrosol itself
virtually insoluble in lipophilic medium	OCCc1ccc(O)c(O)c1 [Hydroxytyrosol, 2-(3,4-dihydroxyphenyl)ethanol]	much greater than the antioxidant additives normally used
